Assay: xn = mol fraction of the nth substance listed
Conditions: Liquid, Vibrating tube method

CN(C)C=O [dimethylformamide] + O=C=O
Conditions	mass density [kg/m3]
313.13 K, 8014 kPa, x2 = 0.6235	949.79
313.13 K, 9041 kPa, x2 = 0.6235	952.04
313.13 K, 10057 kPa, x2 = 0.6235	954.25
313.13 K, 10998 kPa, x2 = 0.6235	956.28
313.13 K, 11991 kPa, x2 = 0.6235	958.34
313.13 K, 12985 kPa, x2 = 0.6235	960.34
313.13 K, 14000 kPa, x2 = 0.6235	962.36
313.13 K, 14996 kPa, x2 = 0.6235	964.28
313.13 K, 16016 kPa, x2 = 0.6235	966.23
313.13 K, 16993 kPa, x2 = 0.6235	968.02
313.13 K, 18006 kPa, x2 = 0.6235	969.86
313.13 K, 18988 kPa, x2 = 0.6235	971.7
313.13 K, 20033 kPa, x2 = 0.6235	973.47
313.13 K, 21061 kPa, x2 = 0.6235	975.25
313.13 K, 22021 kPa, x2 = 0.6235	976.88
313.13 K, 22996 kPa, x2 = 0.6235	978.52
313.13 K, 24001 kPa, x2 = 0.6235	980.14
313.13 K, 25034 kPa, x2 = 0.6235	981.79
313.14 K, 9015 kPa, x2 = 0.8091	920.03
313.14 K, 9992 kPa, x2 = 0.8091	923.92
313.14 K, 10006 kPa, x2 = 0.9311	835.47
313.14 K, 11003 kPa, x2 = 0.8091	927.79
313.14 K, 11013 kPa, x2 = 0.9311	846.13
313.14 K, 12022 kPa, x2 = 0.8091	931.54
313.14 K, 12041 kPa, x2 = 0.9311	855.75
313.14 K, 13011 kPa, x2 = 0.8091	934.99
313.14 K, 13017 kPa, x2 = 0.9311	864.01
313.14 K, 14003 kPa, x2 = 0.8091	938.37
313.14 K, 14036 kPa, x2 = 0.9311	871.87
313.14 K, 15006 kPa, x2 = 0.8091	941.63
313.14 K, 15031 kPa, x2 = 0.9311	878.95
313.14 K, 16000 kPa, x2 = 0.8091	944.75
313.14 K, 16006 kPa, x2 = 0.9311	885.43
313.14 K, 16988 kPa, x2 = 0.8091	947.8
313.14 K, 17030 kPa, x2 = 0.9311	891.82
313.14 K, 17988 kPa, x2 = 0.9311	897.48
313.14 K, 18019 kPa, x2 = 0.8091	950.82
313.14 K, 18996 kPa, x2 = 0.8091	953.63
313.14 K, 19037 kPa, x2 = 0.9311	903.28
313.14 K, 20022 kPa, x2 = 0.9311	908.47
313.14 K, 20032 kPa, x2 = 0.8091	956.51
313.14 K, 21000 kPa, x2 = 0.9311	913.41
313.14 K, 21035 kPa, x2 = 0.8091	959.25
313.14 K, 21995 kPa, x2 = 0.8091	961.81
313.14 K, 22002 kPa, x2 = 0.9311	918.23
313.14 K, 23016 kPa, x2 = 0.9311	922.92
313.14 K, 23033 kPa, x2 = 0.8091	964.52
313.14 K, 24006 kPa, x2 = 0.9311	927.35
313.14 K, 24015 kPa, x2 = 0.8091	966.98
313.14 K, 25006 kPa, x2 = 0.8091	969.42
313.14 K, 25020 kPa, x2 = 0.9311	931.7
313.15 K, 4032 kPa, x2 = 0.2876	948.43
313.15 K, 5041 kPa, x2 = 0.2876	949.39
313.15 K, 6004 kPa, x2 = 0.2876	950.24
313.15 K, 6005 kPa, x2 = 0.4268	955.61
313.15 K, 6022 kPa, x2 = 0.4461	956.18
313.15 K, 6967 kPa, x2 = 0.2876	951.12
313.15 K, 6991 kPa, x2 = 0.4461	957.31
313.15 K, 7013 kPa, x2 = 0.4268	956.75
313.15 K, 8002 kPa, x2 = 0.2876	952.05
313.15 K, 8008 kPa, x2 = 0.4268	957.9
313.15 K, 8024 kPa, x2 = 0.4461	958.53
313.15 K, 9005 kPa, x2 = 0.2876	952.94
313.15 K, 9006 kPa, x2 = 0.4461	959.66
313.15 K, 9014 kPa, x2 = 0.4268	958.99
313.15 K, 9998 kPa, x2 = 0.4461	960.8
313.15 K, 10000 kPa, x2 = 0.2876	953.81
313.15 K, 10006 kPa, x2 = 0.4268	960.05
313.15 K, 10989 kPa, x2 = 0.4461	961.9
313.15 K, 11017 kPa, x2 = 0.2876	954.68
313.15 K, 11017 kPa, x2 = 0.4268	961.14
313.15 K, 12006 kPa, x2 = 0.4268	962.22
313.15 K, 12024 kPa, x2 = 0.2876	955.56
313.15 K, 12025 kPa, x2 = 0.4461	963.02
313.15 K, 13003 kPa, x2 = 0.4461	964.12
313.15 K, 13004 kPa, x2 = 0.4268	963.25
313.15 K, 13007 kPa, x2 = 0.2876	956.41
313.15 K, 13997 kPa, x2 = 0.4268	964.28
313.15 K, 13999 kPa, x2 = 0.4461	965.2
313.15 K, 14004 kPa, x2 = 0.2876	957.26
313.15 K, 14993 kPa, x2 = 0.4461	966.26
313.15 K, 15003 kPa, x2 = 0.4268	965.36
313.15 K, 15006 kPa, x2 = 0.2876	958.1
313.15 K, 15999 kPa, x2 = 0.2876	958.91
313.15 K, 16006 kPa, x2 = 0.4461	967.34
313.15 K, 16007 kPa, x2 = 0.4268	966.35
313.15 K, 17000 kPa, x2 = 0.4268	967.35
313.15 K, 17005 kPa, x2 = 0.2876	959.75
313.15 K, 17007 kPa, x2 = 0.4461	968.38
313.15 K, 17985 kPa, x2 = 0.4461	969.42
313.15 K, 17994 kPa, x2 = 0.4268	968.36
313.15 K, 18009 kPa, x2 = 0.2876	960.57
313.15 K, 19015 kPa, x2 = 0.4461	970.46
313.15 K, 19017 kPa, x2 = 0.4268	969.38
313.15 K, 19021 kPa, x2 = 0.2876	961.39
313.15 K, 19994 kPa, x2 = 0.4268	970.35
313.15 K, 20001 kPa, x2 = 0.2876	962.21
313.15 K, 20007 kPa, x2 = 0.4461	971.48
313.15 K, 20983 kPa, x2 = 0.4268	971.33
313.15 K, 20996 kPa, x2 = 0.4461	972.47
313.15 K, 21004 kPa, x2 = 0.2876	963
313.15 K, 22022 kPa, x2 = 0.2876	963.82
313.15 K, 22022 kPa, x2 = 0.4461	973.5
313.15 K, 22024 kPa, x2 = 0.4268	972.32
313.15 K, 22993 kPa, x2 = 0.4461	974.47
313.15 K, 23016 kPa, x2 = 0.2876	964.58
313.15 K, 23020 kPa, x2 = 0.4268	973.26
313.15 K, 23989 kPa, x2 = 0.2876	965.35
313.15 K, 23996 kPa, x2 = 0.4461	975.45
313.15 K, 24016 kPa, x2 = 0.4268	974.2
313.15 K, 24992 kPa, x2 = 0.4461	976.41
313.15 K, 24996 kPa, x2 = 0.4268	975.14
313.15 K, 25004 kPa, x2 = 0.2876	966.15
313.16 K, 5026 kPa, x2 = 0.4502	955.28
313.16 K, 5988 kPa, x2 = 0.4502	956.32
313.16 K, 6028 kPa, x2 = 0.4068	955.07
313.16 K, 7004 kPa, x2 = 0.4502	957.42
313.16 K, 7010 kPa, x2 = 0.4068	956.12
313.16 K, 7999 kPa, x2 = 0.4502	958.57
313.16 K, 8028 kPa, x2 = 0.4068	957.19
313.16 K, 9005 kPa, x2 = 0.4068	958.24
313.16 K, 9031 kPa, x2 = 0.4502	959.69
313.16 K, 10012 kPa, x2 = 0.4502	960.79
313.16 K, 10041 kPa, x2 = 0.4068	959.33
313.16 K, 10994 kPa, x2 = 0.4068	960.3
313.16 K, 11036 kPa, x2 = 0.4502	961.92
313.16 K, 11990 kPa, x2 = 0.4068	961.32
313.16 K, 12022 kPa, x2 = 0.4502	963.01
313.16 K, 12989 kPa, x2 = 0.4068	962.33
313.16 K, 13014 kPa, x2 = 0.4502	964.13
313.16 K, 14015 kPa, x2 = 0.4502	965.19
313.16 K, 14027 kPa, x2 = 0.4068	963.34
313.16 K, 14992 kPa, x2 = 0.4068	964.31
313.16 K, 15005 kPa, x2 = 0.4502	966.24
313.16 K, 15994 kPa, x2 = 0.4068	965.3
313.16 K, 16019 kPa, x2 = 0.4502	967.32
313.16 K, 16994 kPa, x2 = 0.4068	966.27
313.16 K, 17003 kPa, x2 = 0.4502	968.34
313.16 K, 17999 kPa, x2 = 0.4502	969.4
313.16 K, 18006 kPa, x2 = 0.4068	967.25
313.16 K, 18978 kPa, x2 = 0.4068	968.19
313.16 K, 19033 kPa, x2 = 0.4502	970.43
313.16 K, 19978 kPa, x2 = 0.4502	971.41
313.16 K, 20043 kPa, x2 = 0.4068	969.19
313.16 K, 21007 kPa, x2 = 0.4502	972.47
313.16 K, 21020 kPa, x2 = 0.4068	970.1
313.16 K, 22002 kPa, x2 = 0.4068	970.98
313.16 K, 22023 kPa, x2 = 0.4502	973.48
313.16 K, 23040 kPa, x2 = 0.4502	974.49
313.16 K, 23059 kPa, x2 = 0.4068	971.98
313.16 K, 24007 kPa, x2 = 0.4502	975.45
313.16 K, 24032 kPa, x2 = 0.4068	972.87
313.16 K, 24995 kPa, x2 = 0.4502	976.42
313.16 K, 25024 kPa, x2 = 0.4068	973.76
323.07 K, 9001 kPa, x2 = 0.6235	928.72
323.07 K, 10031 kPa, x2 = 0.6235	931.44
323.07 K, 11013 kPa, x2 = 0.6235	933.93
323.07 K, 12042 kPa, x2 = 0.6235	936.47
323.07 K, 13033 kPa, x2 = 0.6235	938.86
323.07 K, 13992 kPa, x2 = 0.6235	941.1
323.07 K, 14972 kPa, x2 = 0.6235	943.31
323.07 K, 15993 kPa, x2 = 0.6235	945.57
323.07 K, 16998 kPa, x2 = 0.6235	947.71
323.07 K, 18015 kPa, x2 = 0.6235	949.84
323.07 K, 18988 kPa, x2 = 0.6235	951.84
323.07 K, 20012 kPa, x2 = 0.6235	953.89
